SMILES strings stand for the structures. Read-outs that look alike come from different tables or passages of the source.

The target in test [1] is Recombinant human DPP-IV (Homo sapiens, UniProt P27487). The test can be described thus: DPP-IV assay in vitro (H-Ala-Pro-AFC fluorescence). In kind it is biochemical. The conditions noted are these: 30 min pre-incubation, H-Ala-Pro-AFC 50 μM. On the procedure: DPP-IV Assay Solutions of test compounds in varying concentrations (10^−5 mol/L, 10^−6 mol/L, 10^−7 mol/L, 10^−8 mol/L, 10^−9 mol/L, 10^−10 mol/L, 10^−11 mol/L, and 10^−12 mol/L) were prepared in dimethyl sulfoxide (DMSO) and then diluted into assay buffer comprising: 10 mM Tris-HCl pH 8.0, 0.2 M NaCl, and 0.1% BSA. Recombinant human DPP-IV (7.8 ng/ml final concentration) was added to the dilutions and pre-incubated for 30 mins at room temperature before the reaction was initiated with H-Ala-Pro-AFC (50 μM final concentration). The total volume of the reaction mixture was 100 μl.
Sequence of Recombinant human DPP-IV (P27487 whole entry): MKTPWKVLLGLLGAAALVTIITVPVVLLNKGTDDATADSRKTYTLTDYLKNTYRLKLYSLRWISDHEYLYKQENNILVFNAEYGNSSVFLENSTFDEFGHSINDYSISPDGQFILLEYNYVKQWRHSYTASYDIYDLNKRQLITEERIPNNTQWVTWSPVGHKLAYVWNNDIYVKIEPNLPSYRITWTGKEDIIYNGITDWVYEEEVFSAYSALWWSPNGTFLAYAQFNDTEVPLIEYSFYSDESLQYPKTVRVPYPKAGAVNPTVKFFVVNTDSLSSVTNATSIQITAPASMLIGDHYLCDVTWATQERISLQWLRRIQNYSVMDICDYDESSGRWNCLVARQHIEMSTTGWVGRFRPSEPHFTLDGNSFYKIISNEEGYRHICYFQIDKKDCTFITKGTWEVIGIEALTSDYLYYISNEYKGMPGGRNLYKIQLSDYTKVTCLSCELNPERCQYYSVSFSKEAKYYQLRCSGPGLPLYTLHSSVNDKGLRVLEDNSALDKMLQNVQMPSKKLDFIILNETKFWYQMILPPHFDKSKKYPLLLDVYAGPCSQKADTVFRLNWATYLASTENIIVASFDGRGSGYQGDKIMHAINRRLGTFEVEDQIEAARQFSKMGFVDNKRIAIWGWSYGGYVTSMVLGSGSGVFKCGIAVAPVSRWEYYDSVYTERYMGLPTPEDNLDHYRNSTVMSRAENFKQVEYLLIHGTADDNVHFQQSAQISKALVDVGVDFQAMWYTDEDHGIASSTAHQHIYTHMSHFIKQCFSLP
Inhibition constants (IC50) were calculated by GraphPad Prism.

Test [2] addresses T1, DPP-4 (Mus musculus, UniProt P28843).
T1 construct: Blood sample was processed to obtain plasma; from tissue; host or cells: plasma of male ICR mice
The test is described as follows: Plasma DPP-4 activity in mice after oral dosing. In kind it is in vivo, ICR mice. The following applies: read-out: DPP-4 Relative activity %; for activity at 1 mg/kg: oral 1 mg/kg; for activity at 3 mg/kg: mice plasma, oral 3 mg/kg. The protocol:
Some of the exemplary compounds were tested in mice to assess inhibition of DPP-4 activity via plasma DPP-4 activity. Male ICR mice (25-30 g) were used for this study. All the mice were fasted at least 3 hours before study. Mice (n=6/group) received vehicle or at least one of the exemplary compounds by oral gavage. The dosing solutions were 0.15 mg/ml for the 3 mg/kg. Dosing volume was 20 mL/kg of body weight for all doses. The vehicle was distilled water. […] Blood sample was processed to obtain plasma (2000 g, 5 min, 4° C.) within 15 min after sampling.
Plasma was collected and tested by fluoremetry. Before the testing, 80 mM MgCl2 buffer was added into the 5 uL serum samples and pre-incubation for 5 minutes at room temperature, then […] of 0.1 mM substrate Gly-Pro-AMC and 20 μL of buffer were added into them. The fluorescence of the mixture was measured every 3 minutes after mixing (excitation at 380 nm; emission at 460 nm). After 6 times of measurements, a time-fluorescence cure was obtained. The slope of the curve would be the activity of DPP-4 in serum. The DPP-4 activity before administration was 100%. The relative activity of DPP-4 in serum was calculated using the formula below:
Relative DPP-4activity=DPP-4activity after dosing/DPP-4activity before dosing×100%.

Setting [3] is: Table 4 Test 3, mice plasma, 1 h after dosing.
[4] abbreviates: Table 4 Test 3, mice plasma, 2 h after dosing.
Setting [5] is: Table 4 Test 3, mice plasma, 4 h after dosing.
Setting [6] is: Table 4 Test 3, mice plasma, 6 h after dosing.
[7] abbreviates: Table 4 Test 3, mice plasma, 9 h after dosing.
Setting [8] is: Table 4 Test 3, mice plasma, 12 h after dosing.
The mark [9] stands for this setting: Table 4 Test 3, mice plasma, 24 h after dosing.
Setting [10] is: Table 4 Test 2, mice plasma, 1 h after dosing.
The mark [11] stands for this setting: Table 4 Test 2, mice plasma, 2 h after dosing.
Where [12] appears, read: Table 4 Test 2, mice plasma, 4 h after dosing.
The mark [13] stands for this setting: Table 4 Test 2, mice plasma, 6 h after dosing.
The mark [14] stands for this setting: Table 4 Test 2, mice plasma, 9 h after dosing.
The mark [15] stands for this setting: Table 4 Test 2, mice plasma, 24 h after dosing.
Setting [16] is: Table 3, mice plasma, 1 h after dosing.
Setting [17] is: Table 3, mice plasma, 2 h after dosing.
[18] abbreviates: Table 3, mice plasma, 4 h after dosing.
[19] abbreviates: Table 3, mice plasma, 6 h after dosing.
Setting [20] is: Table 3, mice plasma, 9 h after dosing.
Where [21] appears, read: Table 3, mice plasma, 12 h after dosing.
[22] abbreviates: Table 3, mice plasma, 24 h after dosing.

T1 sequence (P28843 37-760 limits assumed): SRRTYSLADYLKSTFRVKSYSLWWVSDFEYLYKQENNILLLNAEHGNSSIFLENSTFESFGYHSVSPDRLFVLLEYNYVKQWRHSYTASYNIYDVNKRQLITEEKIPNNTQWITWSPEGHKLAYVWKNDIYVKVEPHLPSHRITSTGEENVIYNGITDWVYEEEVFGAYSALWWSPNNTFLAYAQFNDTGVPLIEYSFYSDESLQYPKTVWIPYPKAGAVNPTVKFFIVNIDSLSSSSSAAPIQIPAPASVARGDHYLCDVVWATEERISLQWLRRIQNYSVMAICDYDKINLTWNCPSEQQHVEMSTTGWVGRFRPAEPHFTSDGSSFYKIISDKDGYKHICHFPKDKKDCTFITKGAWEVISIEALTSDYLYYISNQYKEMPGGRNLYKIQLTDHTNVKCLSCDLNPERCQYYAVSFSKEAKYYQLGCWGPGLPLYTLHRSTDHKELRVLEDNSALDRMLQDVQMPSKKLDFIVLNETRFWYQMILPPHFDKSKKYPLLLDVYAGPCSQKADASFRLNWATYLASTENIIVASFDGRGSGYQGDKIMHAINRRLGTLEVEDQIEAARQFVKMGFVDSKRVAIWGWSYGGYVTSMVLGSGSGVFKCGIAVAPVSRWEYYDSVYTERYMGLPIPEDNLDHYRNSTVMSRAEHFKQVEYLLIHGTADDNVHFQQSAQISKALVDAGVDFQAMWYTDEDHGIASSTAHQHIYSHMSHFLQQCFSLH

One may read the IC50 as the concentration at which inhibition is half-maximal. As to `N[C@H]1Cc2c(nc3cc(-c4nnco4)ccn23)C[C@@H]1c1cc(F)c(F)cc1F` [Example 1, (7R,8S)-3-(1,3,4-Oxadiazol-2-yl)-7-(2,4,5-trifluorophenyl)-6,7,8,9-tetrahydrobenzo[4,5]imidazo[1,2-a]pyridine-8-amine], the IC50 in test [1] turned out to be 0.8 nM. For the same molecule, the activity at 1 mg/kg in test [2] (setting [3]) worked out at 11.9 ± 1.2%; in test [2] (setting [4]), 7.4 ± 1%; in test [2] (setting [5]), 8.6 ± 0.8%; in test [2] (setting [6]), 8.4 ± 1.3%; in test [2] (setting [7]), 9 ± 1.2%; in test [2] (setting [8]), 8.8 ± 0.9%. Moreover, in test [2] (setting [9]), the activity at 1 mg/kg was found to be 14.4 ± 1.8%. Further, the activity at 3 mg/kg in test [2] (1 h after dosing) worked out at 38.7 ± 4.2%; in test [2] (2 h after dosing) it was 34.9 ± 3%; in test [2] (3 h after dosing), 31.2 ± 2.3%; in test [2] (5 h after dosing) it was 39.2 ± 3.3%.

As to `Cc1nnc(-c2ccn3c4c(nc3c2)C[C@H](c2cc(F)c(F)cc2F)[C@@H](N)C4)o1` [Example 2, (7R,8S)-3-(5-Methyl-1,3,4-oxadiazol-2-yl)-7-(2,4,5-trifluorophenyl)-6,7,8,9-tetrahydrobenzo[4,5]imidazo[1,2-a]pyridin-8-amine], in test [1], the IC50 is 1.2 nM. The activity at 1 mg/kg in test [2] (setting [10]) turned out to be 9.4 ± 1.8%; in test [2] (setting [11]) it was 11.6 ± 2%; in test [2] (setting [12]) it was 7.7 ± 2.1%; in test [2] (setting [13]) it was 9.6 ± 1.3%; in test [2] (setting [14]), 7.8 ± 2.7%; in test [2] (setting [15]), 16.4 ± 3.7%. Besides, the activity at 3 mg/kg in test [2] (1 h after dosing) was 17 ± 3.3%; in test [2] (2 h after dosing) it was 22.6 ± 3.1%; in test [2] (3 h after dosing), 22.6 ± 1.1%; in test [2] (5 h after dosing), 25.9 ± 3.8%.

For the molecule `N[C@H]1Cc2c(nc3cc(-c4ncno4)ccn23)C[C@@H]1c1cc(F)c(F)cc1F` [Example 5, (7R,8S)-3-(1,2,4-Oxadiazol-5-yl)-7-(2,4,5-trifluorophenyl)-6,7,8,9-tetrahydrobenzo[4,5]imidazo[1,2-a]pyridine-8-amine], the IC50 in test [1] is 1 nM.

On to `N[C@H]1Cc2c(nc3cc(-c4nc[nH]n4)ccn23)C[C@@H]1c1cc(F)c(F)cc1F` [Example 7, (7R,8S)-3-(1H-1,2,4-Triazol-3-yl)-7-(2,4,5-trifluorophenyl)-6,7,8,9-tetrahydrobenzo[4,5]imidazo[1,2-a]pyridine-8-amine], for which the IC50 in test [1] turned out to be 0.9 nM.

For `Cc1n[nH]c(-c2ccn3c4c(nc3c2)C[C@H](c2cc(F)c(F)cc2F)[C@@H](N)C4)n1` [Example 8, (7R,8S)-3-(3-methyl-1H-1,2,4-Triazol-5-yl)-7-(2,4,5-trifluorophenyl)-6,7,8,9-tetrahydrobenzo[4,5]imidazo[1,2-a]pyridine-8-amine], in test [1], the IC50 worked out at 1.7 nM.

`Cn1ncnc1-c1ccn2c3c(nc2c1)C[C@H](c1cc(F)c(F)cc1F)[C@@H](N)C3` [Example 9, (7R,8S)-3-(1-Methyl-1H-1,2,4-triazol-5-yl)-7-(2,4,5-trifluorophenyl)-6,7,8,9-tetrahydrobenzo[4,5]imidazo[1,2-a]pyridine-8-amine]: the IC50 in test [1] was found to be 2 nM.

On to `N[C@H]1Cc2c(nc3cc(-c4nnn[nH]4)ccn23)C[C@@H]1c1cc(F)c(F)cc1F` [Example 10, (7R,8S)-3-(1H-Tetrazol-5-yl)-7-(2,4,5-trifluorophenyl)-6,7,8,9-tetrahydrobenzo[4,5]imidazo[1,2-a]pyridin-8-amine], for which, in test [1], the IC50 was 0.6 nM.

Regarding `N[C@H]1Cc2c(nc3cc(-c4n[nH]c(=O)o4)ccn23)C[C@@H]1c1cc(F)c(F)cc1F` [Example 12, 5-((7R,8S)-8-Amino-7-(2,4,5-trifluorophenyl)-6,7,8,9-tetrahydrobenzo[4,5]imidazo[1,2-a]pyridin-3-yl)-1,3,4-oxadiazol-2(3H)-one], the activity at 1 mg/kg in test [2] (setting [16]) turned out to be 7.4 ± 1.2%; in test [2] (setting [17]), 7 ± 1.1%; in test [2] (setting [18]), 6.4 ± 1.9%; in test [2] (setting [19]) it was 10.5 ± 1.7%; in test [2] (setting [20]), 10.1 ± 1.2%; in test [2] (setting [21]), 15 ± 1.6%. Also, the activity at 1 mg/kg in test [2] (setting [22]) amounted to 38.3 ± 5.6%; in test [2] (setting [3]), 7.4 ± 1.2%; in test [2] (setting [4]), 7 ± 1.1%; in test [2] (setting [5]), 6.4 ± 1.9%; in test [2] (setting [6]) it was 10.5 ± 1.7%; in test [2] (setting [7]) it was 10.1 ± 1.2%. Besides, the figures for the activity at 1 mg/kg in test [2] (setting [8]) and in test [2] (setting [9]) were 15 ± 1.6% and 38.3 ± 5.6%, respectively.

On to `Cn1nc(-c2ccn3c4c(nc3c2)C[C@H](c2cc(F)c(F)cc2F)[C@@H](N)C4)oc1=O` [Example 13, 5-((7R,8S)-8-Amino-7-(2,4,5-trifluorophenyl)-6,7,8,9-tetrahydrobenzo[4,5]imidazo[1,2-a]pyridin-3-yl)-3-methyl-1,3,4-oxadiazol-2(3H)-one], for which the activity at 1 mg/kg amounted to 8.5 ± 2.2% in test [2] (setting [16]); 5 ± 1.7% in test [2] (setting [17]); 7 ± 2.7% in test [2] (setting [18]); 4.4 ± 2.3% in test [2] (setting [19]); 6.1 ± 1.7% in test [2] (setting [20]); 8.5 ± 1.3% in test [2] (setting [21]). Further, the activity at 1 mg/kg came to 20.2 ± 0.6% in test [2] (setting [22]); 8.5 ± 2.2% in test [2] (setting [3]); 5 ± 1.7% in test [2] (setting [4]); 7 ± 2.7% in test [2] (setting [5]); 4.4 ± 2.3% in test [2] (setting [6]); 6.1 ± 1.7% in test [2] (setting [7]). Also, the results for the activity at 1 mg/kg in test [2] (setting [8]) and in test [2] (setting [9]) were 8.5 ± 1.3% and 20.2 ± 0.6%, respectively.

Consider `NC(=O)c1ccn2c3c(nc2c1)C[C@H](c1cc(F)c(F)cc1F)[C@@H](N)C3` [Refference 1, (7R,8S)-8-amino-7-(2,4,5-trifluorophenyl)-6,7,8,9-tetrahydrobenzo[4,5]imidazo[1,2-a]pyridine-3-carboxamide, reference compound], for which the activity at 1 mg/kg came to 20.5 ± 3% in test [2] (Table 4 Test 1, mice plasma, 1 h after dosing); 18.1 ± 2.2% in test [2] (Table 4 Test 1, mice plasma, 2 h after dosing); 19.9 ± 2% in test [2] (Table 4 Test 1, mice plasma, 4 h after dosing); 25.3 ± 2% in test [2] (Table 4 Test 1, mice plasma, 6 h after dosing); 33.3 ± 1.5% in test [2] (Table 4 Test 1, mice plasma, 9 h after dosing); 49.5 ± 2.8% in test [2] (Table 4 Test 1, mice plasma, 12 h after dosing). The activity at 1 mg/kg was found to be 90.7 ± 3.2% in test [2] (Table 4 Test 1, mice plasma, 24 h after dosing); 15.5 ± 1.1% in test [2] (setting [10]); 16.5 ± 2% in test [2] (setting [11]); 14.9 ± 2.9% in test [2] (setting [12]); 23.3 ± 3.8% in test [2] (setting [13]); 34.5 ± 2.7% in test [2] (setting [14]). Besides, the activity at 1 mg/kg amounted to 91.1 ± 4.3% in test [2] (setting [15]); 17.5 ± 1.4% in test [2] (setting [3]); 17 ± 1.7% in test [2] (setting [4]); 22 ± 2.1% in test [2] (setting [5]); 33.2 ± 2.7% in test [2] (setting [6]); 42.5 ± 2.2% in test [2] (setting [7]). The results for the activity at 1 mg/kg in test [2] (setting [8]) and in test [2] (setting [9]) were 58 ± 2.6% and 81.9 ± 7.4%, respectively.

Source of the values: patent publication US20150284385A1, “CERTAIN DIPEPTIDYL PEPTIDASE INHIBITORS” (SHANGHAI FOCHON PHARMACEUTICAL CO LTD, priority 2012, published 2015).
